Laboratory results as given in PMC9897767, “Assessments of CYP‑inhibition‑based drug–drug interaction between vonoprazan and poziotinib in vitro and in vivo” (Pharmaceutical Biology, 2023).
Where two headings read alike, the source gives them in different places.

Columns and labels:
[1] = test system: metabolism of vonoprazan in rat liver microsomes; assay: Inhibition of vonoprazan metabolism by poziotinib in rat liver microsomes; assay type: in vitro ADME
Experimental: Rat liver microsomes (RLMs) were prepared according to the previously reported differential centrifugation method (Eriksson [1978]; Wang et al. [2018]), and the concentration of total protein in the RLM was determined to be 28 mg/mL by the BCA protein quantitative method. Then, a 200 μL incubation system was established, which consisted of 5 μg RLM, 100 mM phosphate buffer (pH 7.4), 10 μM vonoprazan (close to its Km), and a series gradient concentration of poziotinib (100, 50, 10, 5, 1, 0.1, 0.01 μM). The mixture was preincubated at 37 °C for 5 min, and NADPH (1 mM) was then added to start the reaction after vortexing. The mixture was placed at 37 °C in a water bath for 30 min with shaking, and 200 μL acetonitrile was added to terminate the reaction and precipitate the protein. Diazepam-acetonitrile solution was then added accurately to serve as the internal standard. After vortexing, the mixture was centrifuged at 12,000 rpm for 10 min and the supernatant was transferred to the sample bottle for further separation. Vonoprazan and its metabolite M-I were detected by UPLC-MS/MS according to the previously reported method (Shen et al. [2020]). The nonlinear regression equation was fitted with GraphPad Prism 9.0 software to calculate the IC50 value of poziotinib.
(§1) To better understand the inhibitory mechanism of poziotinib on vonoprazan, a series of gradient concentrations of vonoprazan were used in the reaction, which included 1/4-, 1/2-, 1-, and 2-times the Km value. Similarly, concentrations of 0, 1/4-, 1/2-, 1-, and 2-times the IC50 of poziotinib were also included in the experiment. The above mentioned UPLC-MS/MS method was used for the quantification of the vonoprazan metabolite M-I. Ki and αKi values were calculated, and the inhibitory mechanism was analyzed using a primary Lineweaver-Burk diagram, Dixon diagram, and secondary Lineweaver-Burk diagram by GraphPad Prism 9.0.

[2] = Michaelis-Menten kinetics of vonoprazan in rat liver microsomes; assay type: in vitro ADME; settings: pH 7.4, vonoprazan as substrate
Experimental: Rat liver microsomes (RLMs) were prepared according to the previously reported differential centrifugation method (Eriksson [1978]; Wang et al. [2018]), and the concentration of total protein in the RLM was determined to be 28 mg/mL by the BCA protein quantitative method. Then, a 200 μL incubation system was established, which consisted of 5 μg RLM, 100 mM phosphate buffer (pH 7.4), 10 μM vonoprazan (close to its Km), and a series gradient concentration of poziotinib (100, 50, 10, 5, 1, 0.1, 0.01 μM). The mixture was preincubated at 37 °C for 5 min, and NADPH (1 mM) was then added to start the reaction after vortexing. […] Vonoprazan and its metabolite M-I were detected by UPLC-MS/MS according to the previously reported method (Shen et al. [2020]). […]
as §1, with “Similarly, concentrations of 0, 1/4-, 1/2-, 1-, and 2-times the IC50 of poziotinib were also included in the experiment.” left out

[3] = Pharmacokinetics of vonoprazan and metabolite M-I in rats with and without poziotinib pretreatment; assay type: in vivo, Sprague-Dawley (SD) rats; settings: vonoprazan; for CL/F / Cmax / Tmax / half-life / MRT last / MRT inf / Vd/F: male, Sprague-Dawley, rat, serum, po, 10 mg/kg; for CL/F: 10 mg/kg gavage, read-out: CLz/F (converted); for MRT last: read-out: MRT(0-t); for MRT inf: read-out: MRT(0-∞); for Vd/F: read-out: Vz/F
Experimental: Twelve healthy male SD rats were randomly divided into two groups. The poziotinib group was given 5 mg/kg poziotinib by gavage every day for 7 days, and rats in the control group only received equal amounts of 0.5% CMC-Na solution in the pre-treatment time. Then animals in the poziotinib group and the control group were fasted for 12 h. On Day 8, the poziotinib group was given poziotinib (5 mg/kg) by gavage, and vonoprazan (10 mg/kg) was given 30 min later, while the control group was only given vonoprazan (10 mg/kg) by gavage. Tail venous blood (300 µL) was collected at 0.083, 0.25, 0.5, 1, 2, 3, 4, 6, 12, and 24 h after the administration of vonoprazan, and then the blood was centrifuged at 4,000 rpm, and 4 °C for 10 min. The serum was collected and stored at −80 °C. After thawing at room temperature, 100 μL of the serum sample was removed and 200 μL of acetonitrile containing diazepam (500 ng/mL) was then added to precipitate proteins. After vortexing, 150 μL of supernatant was removed and centrifuged at 13,000 rpm for 5 min. Then, 2 μL of sample was used for the detection of vonoprazan and its main metabolite M-I by UPLC-MS/MS.
DAS (version 3.2.8; The People’s Hospital of Lishui) was used to fit and calculate the pharmacokinetic parameters of vonoprazan and its metabolite M-I, which include peak time (Tmax), maximum plasma concentration (Cmax), elimination half-life (T1/2), area under the drug-time curve (AUC) and clearance rate (CLz/F). SPSS (version 25.0, IBM, USA) was used for the data processing. Student’s t-test was used to compare the normal distribution of the data, and the Mann–Whitney U test was used for the nonnormal distribution of the data. *p < 0.05 indicates a significant difference compared to the control group and **p < 0.001 indicates an extremely significant difference compared to the control group.
ACQUITY I-Class UPLC and Waters XEVO TQD MS (Milford, MA, USA) were used for the detection of vonoprazan and M-I with an ACQUITY UPLC BEH C18 chromatographic column (50 × 2.1 mm, 1.7 μm) at 40 °C. […] The injection volume of the sample was 2 μL. The scanning method was multiple reaction monitoring (MRM) with detection in positive ion mode and an ESI + ion source. Other mass spectrometry parameters were as follows: capillary voltage 2.0 kV, ion source temperature 150 °C, dissolvent temperature 500 °C, argon flow rate 0.15 mL/min, cone hole gas flow 50 L/h, solvent gas flow 1000 L/h. The precursor ion and product ion were m/z 346.04→314.97 for vonoprazan, m/z 347.50→205.00 for M-I, and m/z 285.10→193.10 for internal standard (IS), diazepam.

[4] = parameters: method as in Suzuki et al. ([2021]); settings: kidney transplant recipients, after switching from rabeprazole to vonoprazan coadministration; ref Suzuki et al. ([2021]); cited from earlier work
[5] = oral 10 mg/kg, control group (no poziotinib)
[6] = oral 10 mg/kg, poziotinib group (5 mg/kg oral pretreatment)
[7] = oral 10 mg/kg, poziotinib 5 mg/kg pretreatment

C=CC(=O)N1CCC(Oc2cc3c(Nc4ccc(Cl)c(Cl)c4F)ncnc3cc2OC)CC1 [poziotinib]
inhibition mechanism ([1]; Lineweaver-Burk plot): mixed model of noncompetitive and uncompetitive inhibition
Ki ([1]; Lineweaver-Burk, slope of primary plot, read-out: inhibitory constant Ki): 0.574 µM
IC50 at 30 min ([1]; pH 7.4, probe vonoprazan 10 μM (metabolite M-I measured), 10 μM vonoprazan, NADPH 1 mM, 37 °C 30 min): 10.6 µM

CNCc1cc(-c2ccccc2F)n(S(=O)(=O)c2cccnc2)c1 [vonoprazan]
Km at 30 min [2]: 14.3 µM
CL/F ([3]; control group): 163 L/h/kg
CL/F ([3]; poziotinib pretreatment 5 mg/kg): 25.8 L/h/kg
Cmax [3, 5]: 0.00569 ± 0.00373 µg/mL
Tmax [3, 5]: 0.63 ± 0.31 h
half-life [3, 5]: 1.25 ± 0.77 h
MRT last [3, 5]: 2.29 ± 0.36 h
MRT inf [3, 5]: 2.29 ± 0.36 h
Vd/F [3, 5]: 298 ± 191 L/kg
Cmax [3, 6]: 0.0154 ± 0.00498 µg/mL
Tmax [3, 6]: 1.92 ± 2.06 h
half-life [3, 6]: 2.84 ± 1.44 h
MRT last [3, 6]: 5.26 ± 1.77 h
MRT inf [3, 6]: 5.51 ± 2.06 h
Vd/F [3, 6]: 90.5 ± 27.3 L/kg
AUC(0-T) increase, poziotinib group vs control group [3, 7]: 6.02 fold
AUC(0-∞) increase, poziotinib group vs control group [3, 7]: 6.11 fold
CLz/F reduction, poziotinib group vs control group [3, 7]: 84%
Cmax increase, poziotinib group vs control group [3, 7]: 2.7 fold
MRT(0-T) increase, poziotinib group vs control group [3, 7]: 2.30 fold
MRT(0-∞) increase, poziotinib group vs control group [3, 7]: 2.41 fold
T1/2 increase, poziotinib group vs control group [3, 7]: 2.2 fold
Tmax increase, poziotinib group vs control group [3, 7]: 3.0 fold
Vz/F reduction, poziotinib group vs control group [3, 7]: 70%

C=CC[C@@H]1/C=C(\C)C[C@H](C)C[C@H](OC)[C@H]2O[C@@](O)(C(=O)C(=O)N3CCCC[C@H]3C(=O)O[C@H](/C(C)=C/[C@@H]3CC[C@@H](O)[C@H](OC)C3)[C@H](C)[C@@H](O)CC1=O)[C@H](C)C[C@@H]2OC [tacrolimus]
increase of blood concentration of tacrolimus [4]: 65.8%
